# Measured values taken from patent publication EP0587374A2, “Sulfated sterol glycosides and their use against viral infections” (VIROSTAT (NA) NV, priority 1992, dated 1994).
# Where two headings read alike, the source gives them in different places.
# Tests used:
# [1] = system: Peripheral blood lymphocytes; assay: In vitro cytotoxicity, Trypan Blue exclusion after 3 days of culture; conditions: 3 days, means of 4 counts
# Description: Peripheral blood lymphocytes were prepared from normal blood. Cells were cultured for 3 days in complete medium [(RPMI, a commercially available so-called standard salt solution) + 10 % foetal calf serum (FCS) + […]] in the presence/absence of phytohemagglutinin (PHA). Duplicate wells were set up. Incubation was at 37°C and 5 % CO₂.
# On the third day, cell viabilities were determined using the Trypan Blue exclusion test.
# Those products which were water soluble, were made up at 8 mg/mℓ stocks in sterile distilled water and diluted 1:10 in RPMI medium and again diluted 1:10 directly in the wells containing the cells in complete medium. The final concentrations were thus 80 µg/mℓ. For the lower dilutions, the 8 mg/mℓ stock was diluted 1:2 or 1:4 or 1:8 in water before being diluted in the RPMI medium.
# For those products which were DMSO-soluble, the stocks were made'up at 8 mg/mℓ in 100 % DMSO. This stock was diluted 1:10 in 100 % FCS and diluted 1:10 directly in the wells containing the cells in RPMI medium only. The final concentrations were thus 10 % FCS and 1 % DMSO. For the lower dilutions, the 8 mg/mℓ stock was diluted 1:2 or 1:4 or 1:8 with DMSO before the FCS dilution step.
# This stock was diluted in water to yield a working stock of 2 mg/mℓ. The 2 mg/ml stock was diluted 1:20 or 1:10 or 1:5 or 1:2.5 in water and again 1:10 in the wells to give the 10, 20, 40 or 80 µg/mℓ final concentrations respectively.
# [2] = test concentration 10 µg/mℓ, duration 6 days
# [3] = test concentration 25 µg/mℓ, duration 6 days
# [4] = test concentration 50 µg/mℓ, duration 6 days
smiles,measurement,setting,value
"Cc1cn([C@H]2C[C@H](N=[N+]=[N-])[C@@H](CO)O2)c(=O)[nH]c1=O [AZT, reference compound]",inhibition of P24 protein production,"HIV-1; concentration 10 ng/mℓ, test of Table 3",100%
"CC[C@H](CC[C@@H](C)[C@H]1CC[C@H]2[C@@H]3CC=C4C[C@@H](O)CC[C@]4(C)[C@H]3CC[C@]12C)C(C)C [BSS, β-Sitosterol, reference compound]",% Viability,[1]; Cells + PHA + 1.25 µg/mℓ,89%
same,% Viability,[1]; Cells + PHA + 2.5 µg/mℓ,81%
same,% Viability,[1]; Cells + PHA + 5 µg/mℓ,92%
same,% Viability,[1]; Cells + PHA + 10 µg/mℓ,82%
same,% INHIBITION OF P24 PROTEIN PRODUCTION,HIV-1; [2],0%
same,% INHIBITION OF P24 PROTEIN PRODUCTION,"HIV-1; test concentration 10 µg/mℓ, duration 6 days, listed as LL2",no significant inhibition
"CC[C@H](CC[C@@H](C)[C@H]1CC[C@H]2[C@@H]3CC=C4C[C@@H](OS(=O)(=O)O)CC[C@]4(C)[C@H]3CC[C@]12C)C(C)C [BSS-SO₄⁻, β-Sitosteryl sulphate, reference compound]",% INHIBITION OF P24 PROTEIN PRODUCTION,HIV-1; [2],0%
same,% INHIBITION OF P24 PROTEIN PRODUCTION,"HIV-1; test concentration 10 µg/mℓ, duration 6 days, listed as LL1",no significant inhibition
"CC[C@H](CC[C@@H](C)[C@H]1CC[C@H]2[C@@H]3CC=C4C[C@@H](O[C@@H]5O[C@H](CO)[C@@H](O)[C@H](O)[C@H]5O)CC[C@]4(C)[C@H]3CC[C@]12C)C(C)C [BSSG, β-Sitosteryl β-D-glucoside, reference compound]",% INHIBITION OF P24 PROTEIN PRODUCTION,HIV-1; [2],0%
same,% INHIBITION OF P24 PROTEIN PRODUCTION,"HIV-1; test concentration 10 µg/mℓ, duration 6 days, listed as LL4",no significant inhibition
"CC(C)CCC[C@@H](C)[C@H]1CC[C@H]2[C@@H]3CC=C4C[C@@H](O)CC[C@]4(C)[C@H]3CC[C@]12C [CHO, Cholesterol, reference compound]",% INHIBITION OF P24 PROTEIN PRODUCTION,HIV-1; [2],3%
same,% INHIBITION OF P24 PROTEIN PRODUCTION,"HIV-1; test concentration 10 µg/mℓ, duration 6 days, listed as LL5",no significant inhibition
"CC(C)CCC[C@@H](C)[C@H]1CC[C@H]2[C@@H]3CC=C4C[C@@H](OS(=O)(=O)O)CC[C@]4(C)[C@H]3CC[C@]12C [CHO-SO₄⁻, Cholesteryl sulphate, reference compound]",% INHIBITION OF P24 PROTEIN PRODUCTION,HIV-1; [2],0%
same,% INHIBITION OF P24 PROTEIN PRODUCTION,"HIV-1; test concentration 10 µg/mℓ, duration 6 days, listed as LL6",no significant inhibition
"CC(C)CCC[C@@H](C)[C@H]1CC[C@H]2[C@@H]3CC=C4C[C@@H](O[C@@H]5O[C@H](COS(=O)(=O)[O-])[C@@H](OS(=O)(=O)[O-])[C@H](OS(=O)(=O)[O-])[C@H]5OS(=O)(=O)[O-])CC[C@]4(C)[C@H]3CC[C@]12C.[Na+].[Na+].[Na+].[Na+] [CHOG-(SO₄⁻)₄, Cholesteryl β-D-glucoside tetra-sulphate]",% INHIBITION OF P24 PROTEIN PRODUCTION,"HIV-1; test concentration 12.5 µg/mℓ, duration 4 days",19%
same,% INHIBITION OF P24 PROTEIN PRODUCTION,"HIV-1; test concentration 25 µg/mℓ, duration 4 days",18%
same,% INHIBITION OF P24 PROTEIN PRODUCTION,"HIV-1; test concentration 50 µg/mℓ, duration 4 days",49%
same,% INHIBITION OF P24 PROTEIN PRODUCTION,"HIV-1; test concentration 100 µg/mℓ, duration 4 days",86%
"C[C@@H]1CC[C@@]2(OC1)O[C@H]1C[C@H]3[C@@H]4CC=C5C[C@@H](O[C@@H]6O[C@H](COS(=O)(=O)[O-])[C@@H](OS(=O)(=O)[O-])[C@H](OS(=O)(=O)[O-])[C@H]6OS(=O)(=O)[O-])CC[C@]5(C)[C@H]4CC[C@]3(C)[C@H]1[C@@H]2C.[Na+].[Na+].[Na+].[Na+] [DG-(SO₄⁻)₄, Diosgenyl β-D-glucoside tetra-sulphate]",anti-HIV-1 effect (in words),"HIV-1; in terms of P24 protein production, Tables 1-3",marked anti-HIV-1 effects
same,% INHIBITION OF P24 PROTEIN PRODUCTION,HIV-1; [3],60%
same,% INHIBITION OF P24 PROTEIN PRODUCTION,HIV-1; [4],100%
"CCCCCCCCCCCCOS(=O)(=O)[O-].[Na+] [SODIUM n-DODECYL SULPHATE, reference compound]",% INHIBITION OF P24 PROTEIN PRODUCTION,HIV-1; [3],0%
same,% INHIBITION OF P24 PROTEIN PRODUCTION,HIV-1; [4],45%
"CCCCCCCCO[C@@H]1O[C@H](COS(=O)(=O)O)[C@@H](OS(=O)(=O)O)[C@H](OS(=O)(=O)O)[C@H]1OS(=O)(=O)O [n-OCTYL GLUCOSIDE TETRA-SULPHATE, reference compound]",% INHIBITION OF P24 PROTEIN PRODUCTION,HIV-1; [3],0%
same,% INHIBITION OF P24 PROTEIN PRODUCTION,HIV-1; [4],0%
